Measurements from patent US20060099235A1, “Medical devices and compositions useful for treating or inhibiting restenosis” (Medtronic Vascular, Inc., priority 2004, published 2006).

Tests used:
[1] = test system: human coronary artery smooth muscle cells (hCASMCs); assay: Microscopic evaluation of cell morphology after 3-day exposure; format: cell-based; conditions: hCASMC, 3 days
Protocol: (§1) Leptomycin B's anti-proliferative efficacy was tested at different concentrations (0.01 nM, 0.1 nM, 1.0 nM, 10.0 nM, 100 nM and 1000 nM) using a three day exposure to hCASMC. The same experiment was performed twice at two separate times to ascertain leptomycin's effect on cell proliferation using a cell viability assay, and the cell phenotype through a qualitative observation of cell morphology following the 3-day exposure to leptomycin B.
The evaluation of cell phenotype on drug-treated wells was performed by optical microscopy observation and capture of representative images at 200× (total magnification). Microscopic evaluation and pictures were performed before the proliferation assay was done on the 24-well drug-treated plate.
Representative microphotographs (See FIGS. 8-14) of cells exposed to different concentrations of leptomycin B for a period of three days. HCASMCs cultured in the absence of the drug (FIG. 8) reached a ˜90% confluency with the expected healthy phenotype at three days (duration of the assay), providing an adequate control.

[2] = test system: human coronary artery smooth muscle cells (hCASMCs); assay: CellTiter-Glo Luminescent Cell Viability (proliferation) assay, 3-day exposure; format: cell-based
Protocol: as §1
The CellTiter-Glo® Luminescent Cell Viability Assay (Promega Corporation, Madison, Wis.) is a method of determining the number of viable cells in culture based on the quantitation of ATP, as an indicator of metabolically active cells (proliferating). A single reagent is added to cells directly in culture, this reagent lyses the cells and provides the luciferase enzyme that reacts with the liberated ATP to create a luminescent signal.
Twenty-four well plates were seeded with hCASMC at 5×10^3 cells per well (n=3) using methods know to those skilled in the art of cell culture. For example and not intended as a limitation: Materials • 1. Human coronary smooth muscles cells (HCASMC) are obtained from Clonetics, a division of Cambrex, Inc. • 2. HCASMC basal media, supplied by Clonetics and supplemented with fetal bovine serum, insulin, hFGF-B (human fibroblast growth factor) hEGF (human epidermal growth factor). • 3. Leptomycin B was purchased from LC Laboratories. Wobum, Mass., USA catalogue number L-6100 • 4. Absolute methanol • 5. Twenty-four well polystyrene tissue culture plates
Dilutions of the drug were made in serum-free cell culture media from the stock solution. A volume of 100 μL of each dilution was added to designated wells. […]
The CellTiter-Glo® Luminescent Cell Viability Assay (Promega Corporation, Madison, Wis.) was performed to assess percent viability. The CellTiter-Glo® Luminescent Cell Viability Assay is a homogeneous method of determining the number of viable cells in culture based on quantitation of the ATP present, which signals the presence of metabolically active cells. […]

SMILES: CCC(=C/[C@H](C)C/C=C/C(C)=C/[C@@H](C)C(=O)[C@@H](C)[C@H](O)[C@@H](C)C/C(C)=C/C(=O)O)/C=C/[C@@H]1OC(=O)C=C[C@@H]1C [leptomycin B, 2,10,12,16,18-nonadecapentaenoic acid]
- microscopic signs of cytotoxicity ([1]; 0.01-1000 nM): No microscopic signs of cytotoxicity
- level of confluence ([1]; 200x optical microscopy, control ~90% confluency): decreased level of confluence
- effect on human coronary artery smooth muscle cell proliferation ([2]; 0.01-1000 nM, two trials (FIGS. 6 and 7)): inhibitory effect
- concentration showing inhibitory effect on hCASMC proliferation in vitro ([2]; concentrations as low as): ≥ 1 nM
- nature of the effect (cytostatic vs cytotoxic) ([2]; hCASMC): predominantly cytostatic rather than cytotoxic
